{
  "source": "patent US20030215817A1",
  "about": "“Modulation of gene expression in formation of fatty atherosclerotic lesions” (priority 2003, published 2003)",
  "key": {"[1]": {"experiment": "preliminary kinetic studies: plasma levels after subcutaneous administration", "type": "in vivo", "conditions": "rabbit, sc, rabbits, after 7 days from the administration", "method": "The doses of lercanidipine used were determined from preliminary kinetic studies."}, "[2]": {"tested_on": "REC1_18 (MspI TGGT 241) mRNA", "experiment": "quantified RT-PCR, Rec1_18", "type": "in vivo, rabbit", "conditions": "for Relative Abundance Rec1_18, 20 pg F: hypercholesterolemic plus lercanidipine racemate, eight weeks, H2 (normocholesterolemic)=1.0", "method": "Nineteen of the isolated DST clones were further validated using RT-PCR analyses; the data are presented in FIGS. 6-24 and in Tables 5-23, below. For each DST examined, the optimal annealing temperature and reagent conditions were determined for the corresponding set of primers (see Table 25) based on results from a preliminary experiment. In eight separate reactions, each set of primers was assayed to find the optimal conditions by adjusting the following four parameters: primer concentration, dNTP concentration, MgCl2 concentration, and number of Taq polymerase units. Once optimal conditions were determined, each DST was run in duplicate multiple simultaneous reactions which usually included at least four dilutions of template (cDNA library), plus control reactions lacking template, and six sequential data points for numbers of cycles.\nReactions were performed using “Hot Start” PCR with the Clontech TaqStart antibody system (Cat. #5400-1). Each reaction contained 1 ml of the cDNA library dilution as template, determined amounts of AmpliTaq DNA polymerase (cat. #N808-0156), MgCl2, dNTPs (GibcoBRL cat. #10297-018), primer, and Clontech TaqStart Antibody in a 20 ml final reaction volume using 10×Taq buffer II (without MgCl2). Typically, a master mix containing all components except the template was prepared and aliquoted. Various templates were then added to these master mix samples and 20 ml volumes were subsequently dispensed into individual reaction tubes. At various times during the PCR run, tubes were removed sequentially on a predetermined schedule in order to quantitate expression of the target DST over a “window” of cycle times. After amplification, the samples were quantified via fluorimetry.\nPCR was performed at annealing temperatures that were five degrees above the average melting temperature of each primer pair. For primers greater than 10 bases (in a 0.05M salt solution), melting temperature was calculated using the following formula: Tm=59.9+41[% GC]−[675/Primer Length], where %GC is the decimal value. Following determination of the average melting temperature of the primer pair, the annealing temperature was determined by adding five degrees to the average melting temperature. PCR was performed using the following program: 1) 95 degrees Celsius, 3 minutes; 2) 95 degrees Celsius, 30 seconds; 3) TM+5 degrees Celsius, 30 seconds; 4) 72 degrees Celsius, for a time dependent on target length at 16 bp/second; 5) repeat steps 2-4 33 more cycles; 6) 72 degrees Celsius, 3 minutes; 7) 14 degrees Celsius, forever.\nFollowing temperature cycling, 2 ml of the PCR reaction was added to 140 ml of a 1:280 dilution of PicoGreen (Molecular Probes cat. #P-11495 (10×100 ml)) in TE pH 7.5 in a 96-well Costar UV microtiter plate (Fisher cat. #07-200623). The samples were mixed gently for 1.5 minutes and allowed to equilibrate at room temperature in the dark for 15 minutes. The concentration of the PCR products was quantified by fluorimetry using a PerSeptive Biosystems CytoFluor series 4000 multi-well plate reader.\nBackground fluorescence was determined by using duplicate control samples that were cycled with all reaction components except the template. The mean value from these duplicate background control samples was subtracted from the corresponding experimental values prior to analyzing results. The sensitivity of the PicoGreen dsDNA assay is reported to be 250 pg/ml (50 pg dsDNA in a […] assay volume) using a fluorescence microplate reader such as was used in these measurements. […]"}},
  "note": "Structures can show the parent of a compound that is named as a salt.",
  "data": [
    {"smiles": "COC(=O)C1=C(C)NC(C)=C(C(=O)OC(C)(C)CN(C)CCC(c2ccccc2)c2ccccc2)C1c1cccc([N+](=O)[O-])c1", "note": "(racemic) [lercanidipine, lercanidipine hydrochloride]", "values": [
      {"measurement": "concentration at 7 days", "setting": "[1]; subcutaneous administration of 1 mg/kg", "result": 500, "unit": "ng/g"},
      {"measurement": "concentration at 7 days", "setting": "[1]; subcutaneous administration of 3 mg/kg", "result": 3200, "unit": "ng/g"},
      {"measurement": "Relative Abundance Rec1_18, 20 pg F", "setting": "[2]; cycle 24", "result": 169.0},
      {"measurement": "Relative Abundance Rec1_18, 20 pg F", "setting": "[2]; cycle 26", "result": 5.8},
      {"measurement": "Relative Abundance Rec1_18, 20 pg F", "setting": "[2]; cycle 28", "result": 1.0},
      {"measurement": "Relative Abundance Rec1_18, 20 pg F", "setting": "[2]; cycle 30", "result": 1.0},
      {"measurement": "Relative Abundance Rec1_18, 20 pg F", "setting": "[2]; cycle 32", "result": 1.4},
      {"measurement": "Relative Abundance Rec1_18, 20 pg F", "setting": "[2]; cycle 34", "result": 1.1},
      {"measurement": "expression of Rec1_18 at 8 weeks (RT-PCR study), in words", "setting": "[2]; hypercholesterolemic animals receiving lercanidipine racemate", "result": "somewhat elevated"}
    ]}
  ]
}
